# Experimental data from ChEMBL document CHEMBL4270577, “Synthesis, anticancer activity and molecular modeling studies of 1,2,4-triazole derivatives as EGFR inhibitors” (Eur J Med Chem, 2018).
# Assays:
# [1] = system: CCRF-CEM; assay: Growth inhibition of human CCRF-CEM cells at 10 uM incubated for 48 hrs by sulforhodamine B assay relative to control; format: functional; conditions: read-out: GI
# [2] = system: HL-60(TB); assay: Growth inhibition of human HL-60(TB) cells at 10 uM incubated for 48 hrs by sulforhodamine B assay relative to control; format: functional; conditions: HL-60, 48 h, read-out: GI
# [3] = system: MOLT-4; assay: Growth inhibition of human MOLT4 cells at 10 uM incubated for 48 hrs by sulforhodamine B assay relative to control; format: functional; conditions: MOLT-4, 48 h, read-out: GI
# [4] = system: RPMI-8226; assay: Growth inhibition of human RPMI8226 cells at 10 uM incubated for 48 hrs by sulforhodamine B assay relative to control; format: functional; conditions: RPMI-8226, 48 h, read-out: GI
# [5] = system: SR; assay: Growth inhibition of human SR cells at 10 uM incubated for 48 hrs by sulforhodamine B assay relative to control; format: functional; conditions: read-out: GI
# [6] = system: A549; assay: Growth inhibition of human A549/ATCC cells at 10 uM incubated for 48 hrs by sulforhodamine B assay relative to control; format: functional; conditions: A549, 48 h, read-out: GI
# [7] = system: HOP-62; assay: Growth inhibition of human HOP62 cells at 10 uM incubated for 48 hrs by sulforhodamine B assay relative to control; format: functional; conditions: HOP-62, 48 h, read-out: GI
# [8] = system: HOP-92; assay: Growth inhibition of human HOP92 cells at 10 uM incubated for 48 hrs by sulforhodamine B assay relative to control; format: functional; conditions: HOP-92, 48 h, read-out: GI
# [9] = system: NCI-H322M; assay: Growth inhibition of human NCI-H322M cells at 10 uM incubated for 48 hrs by sulforhodamine B assay relative to control; format: functional; conditions: read-out: GI
# [10] = system: NCI-H522; assay: Growth inhibition of human NCI-H522 cells at 10 uM incubated for 48 hrs by sulforhodamine B assay relative to control; format: functional; conditions: NCI-H522, 48 h, read-out: GI
# [11] = system: HCT-116; assay: Growth inhibition of human HCT116 cells at 10 uM incubated for 48 hrs by sulforhodamine B assay relative to control; format: functional; conditions: HCT-116, 48 h, read-out: GI
# [12] = system: HT-29; assay: Growth inhibition of human HT-29 cells at 10 uM incubated for 48 hrs by sulforhodamine B assay relative to control; format: functional; conditions: HT-29, 48 h, read-out: GI
# [13] = system: SNB-19; assay: Growth inhibition of human SNB19 cells at 10 uM incubated for 48 hrs by sulforhodamine B assay relative to control; format: functional; conditions: SNB-19, 48 h, read-out: GI
# [14] = system: SNB-75; assay: Growth inhibition of human SNB75 cells at 10 uM incubated for 48 hrs by sulforhodamine B assay relative to control; format: functional; conditions: SNB-75, 48 h, read-out: GI
# [15] = system: U-251; assay: Growth inhibition of human U251 cells at 10 uM incubated for 48 hrs by sulforhodamine B assay relative to control; format: functional; conditions: U-251, 48 h, read-out: GI
# [16] = system: SK-MEL-2; assay: Growth inhibition of human SK-MEL-2 cells at 10 uM incubated for 48 hrs by sulforhodamine B assay relative to control; format: functional; conditions: SK-MEL-2, 48 h, read-out: GI
# [17] = system: UACC-257; assay: Growth inhibition of human UACC257 cells at 10 uM incubated for 48 hrs by sulforhodamine B assay relative to control; format: functional; conditions: UACC-257, 48 h, read-out: GI
# [18] = system: UACC-62; assay: Growth inhibition of human UACC62 cells at 10 uM incubated for 48 hrs by sulforhodamine B assay relative to control; format: functional; conditions: UACC-62, 48 h, read-out: GI
# [19] = system: OVCAR-8; assay: Growth inhibition of human OVCAR8 cells at 10 uM incubated for 48 hrs by sulforhodamine B assay relative to control; format: functional; conditions: OVCAR-8, 48 h, read-out: GI
# [20] = system: SK-OV-3; assay: Growth inhibition of human SKOV3 cells at 10 uM incubated for 48 hrs by sulforhodamine B assay relative to control; format: functional; conditions: SK-OV-3, 48 h, read-out: GI
# [21] = system: UO-31; assay: Growth inhibition of human UO31 cells at 10 uM incubated for 48 hrs by sulforhodamine B assay relative to control; format: functional; conditions: UO-31, 48 h, read-out: GI
# [22] = system: PC-3; assay: Growth inhibition of human PC3 cells at 10 uM incubated for 48 hrs by sulforhodamine B assay relative to control; format: functional; conditions: PC-3, 48 h, read-out: GI
# [23] = system: MCF7; assay: Growth inhibition of human MCF7 cells at 10 uM incubated for 48 hrs by sulforhodamine B assay relative to control; format: functional; conditions: MCF7, 48 h, read-out: GI
# [24] = system: Hs-578T; assay: Growth inhibition of human Hs 578T cells at 10 uM incubated for 48 hrs by sulforhodamine B assay relative to control; format: functional; conditions: read-out: GI
# [25] = system: T47D; assay: Growth inhibition of human T47D cells at 10 uM incubated for 48 hrs by sulforhodamine B assay relative to control; format: functional; conditions: read-out: GI
# [26] = system: PANC-1; assay: Antiproliferative activity against human PANC1 cells after 48 hrs by propidium iodide staining-based fluorometric analysis; format: functional, cell-based; conditions: PANC-1, 48 h
# [27] = system: MIA PaCa-2; assay: Antiproliferative activity against human MIAPaCa2 cells after 48 hrs by propidium iodide staining-based fluorometric analysis; format: functional, cell-based; conditions: MIA PaCa-2, 48 h
# [28] = system: HT-29; assay: Antiproliferative activity against human HT-29 cells after 48 hrs by propidium iodide staining-based fluorometric analysis; format: functional, cell-based; conditions: HT-29, 48 h
# [29] = system: NCI-H460; assay: Antiproliferative activity against human H460 cells after 48 hrs by propidium iodide staining-based fluorometric analysis; format: functional, cell-based; conditions: NCI-H460, 48 h
# [30] = system: NCI-H226; assay: Growth inhibition of human NCI-H226 cells at 10 uM incubated for 48 hrs by sulforhodamine B assay relative to control; format: functional; conditions: NCI-H226, 48 h, read-out: GI
# [31] = system: NCI-H23; assay: Growth inhibition of human NCI-H23 cells at 10 uM incubated for 48 hrs by sulforhodamine B assay relative to control; format: functional; conditions: NCI-H23, 48 h, read-out: GI
# [32] = system: A498; assay: Growth inhibition of human A498 cells at 10 uM incubated for 48 hrs by sulforhodamine B assay relative to control; format: functional; conditions: A498, 48 h, read-out: GI
# [33] = biological target: Tubulin (Homo sapiens) (UniProt P68371+Q9H4B7+P0DPH7+P68366+Q13509+Q71U36+P04350+Q3ZCM7+P07437+P68363+Q9BQE3+Q6PEY2+Q13885+Q9BVA1+Q9BUF5); assay: Inhibition of tubulin (unknown origin) polymerization assessed as polymerized tubulin level at 5 to 25 uM by fluorescence assay; format: protein-complex assay
# [34] = system: TK-10; assay: Growth inhibition of human TK10 cells at 10 uM incubated for 48 hrs by sulforhodamine B assay relative to control; format: functional; conditions: TK-10, 48 h, read-out: GI
# [35] = system: SF-268; assay: Growth inhibition of human SF268 cells at 10 uM incubated for 48 hrs by sulforhodamine B assay relative to control; format: functional; conditions: SF-268, 48 h, read-out: GI
# [36] = system: IGROV-1; assay: Growth inhibition of human IGROV1 cells at 10 uM incubated for 48 hrs by sulforhodamine B assay relative to control; format: functional; conditions: IGROV-1, 48 h, read-out: GI
# [37] = system: MDA-MB-231; assay: Growth inhibition of human MDA-MB-231/ATCC cells at 10 uM incubated for 48 hrs by sulforhodamine B assay relative to control; format: functional; conditions: MDA-MB-231, 48 h, read-out: GI
SMILES,inhibition of growth at 10 µM [1] [%],inhibition of growth at 10 µM [2] [%],inhibition of growth at 10 µM [3] [%],inhibition of growth at 10 µM [5] [%],inhibition of growth at 10 µM [6] [%],inhibition of growth at 10 µM [7] [%],inhibition of growth at 10 µM [10] [%],inhibition of growth at 10 µM [12] [%],inhibition of growth at 10 µM [13] [%],inhibition of growth at 10 µM [14] [%],inhibition of growth at 10 µM [15] [%],inhibition of growth at 10 µM [17] [%],inhibition of growth at 10 µM [19] [%],inhibition of growth at 10 µM [20] [%],inhibition of growth at 10 µM [21] [%],inhibition of growth at 10 µM [22] [%],IC50 [26] [µM],IC50 [27] [µM],IC50 [28] [µM],IC50 [29] [µM],further results
CC(=O)c1ccc(NC(=O)Cn2nc(-c3ccc(Cl)cc3)nc2N)cc1,19.9,7.98,16.5,7.32,22,15.1,28,10.4,8.53,6.47,5.94,19.8,15.4,22,20.6,20.3,7.4,8.1,6.9,6.8,inhibition of growth at 10 µM [4]: 3.17%; inhibition of growth at 10 µM [8]: 7.76%; inhibition of growth at 10 µM [9]: 5.69%; inhibition of growth at 10 µM [11]: 4.68%; inhibition of growth at 10 µM [16]: 4.03%; inhibition of growth at 10 µM [18]: 6.29%; inhibition of growth at 10 µM [23]: 5.48%; inhibition of growth at 10 µM [24]: 6.29%; inhibition of growth at 10 µM [25]: 21.6%
C/C(=N/O)c1ccc(NC(=O)Cn2nc(-c3ccccc3)nc2N)cc1,6.77,7.41,11.5,5.58,32,17.7,30,13.9,3.56,22.5,8.76,34,15.3,15.2,15.4,15.8,8.7,5.7,4.7,4.4,inhibition of growth at 10 µM [8]: 5.82%; inhibition of growth at 10 µM [30]: 3.91%; inhibition of growth at 10 µM [31]: 3.98%; inhibition of growth at 10 µM [16]: 5.32%; inhibition of growth at 10 µM [32]: 19.6%; inhibition of growth at 10 µM [24]: 7.41%; inhibition of growth at 10 µM [25]: 23%
CC[C@]1(O)C[C@H]2CN(CCc3c([nH]c4ccccc34)[C@@](C(=O)OC)(c3cc4c(cc3OC)N(C=O)[C@H]3[C@@](O)(C(=O)OC)[C@H](OC(C)=O)[C@]5(CC)C=CCN6CC[C@]43[C@@H]65)C2)C1,,,,,,,,,,,,,,,,,,,,,Activity [33]: 722 a.u.
C/C(=N/O)c1ccc(NC(=O)Cn2nc(C(F)(F)F)nc2N)cc1,10.5,26,23.3,15.9,29,9.21,31,11.9,,14.8,11.3,25.6,20.5,3.53,15.1,20.3,3.5,4.9,5.4,5.2,inhibition of growth at 10 µM [4]: 4.65%; inhibition of growth at 10 µM [30]: 12.9%; inhibition of growth at 10 µM [31]: 4.46%; inhibition of growth at 10 µM [9]: 4.32%; inhibition of growth at 10 µM [11]: 8.65%; inhibition of growth at 10 µM [16]: 13.1%; inhibition of growth at 10 µM [18]: 5.39%; inhibition of growth at 10 µM [34]: 14.3%
C/C(=N\O)c1ccc(NC(=O)Cn2nc(-c3ccc(Cl)cc3)nc2N)cc1,14.7,5.94,33,18.3,20.1,11.7,31.5,13.3,10.7,12,9.67,27.8,18,27.4,34,28.9,6.6,8.4,5.8,7.1,inhibition of growth at 10 µM [4]: 6.42%; inhibition of growth at 10 µM [30]: 17.8%; inhibition of growth at 10 µM [31]: 7.43%; inhibition of growth at 10 µM [9]: 7.09%; inhibition of growth at 10 µM [35]: 10.5%; inhibition of growth at 10 µM [16]: 15.3%; inhibition of growth at 10 µM [18]: 8.96%; inhibition of growth at 10 µM [36]: 10.5%; inhibition of growth at 10 µM [23]: 15.9%; inhibition of growth at 10 µM [37]: 17.4%; inhibition of growth at 10 µM [24]: 11.2%; inhibition of growth at 10 µM [25]: 13.5%
CC(=O)c1ccc(NC(=O)Cn2nc(-c3ccccc3)nc2N)cc1,,,,,,,,,,,,,,,,,9.5,8.5,8.4,9.8,
CC(=O)O[C@@]12CO[C@@H]1C[C@H](O)[C@@]1(C)C(=O)[C@H](O)C3=C(C)[C@@H](OC(=O)[C@H](O)[C@@H](NC(=O)OC(C)(C)C)c4ccccc4)C[C@@](O)([C@@H](OC(=O)c4ccccc4)[C@H]21)C3(C)C,,,,,,,,,,,,,,,,,,,,,Activity [33]: 4740 a.u.
CC(=O)c1ccc(NC(=O)Cn2nc(C(F)(F)F)nc2N)cc1,6.78,15.4,7.46,,20,9.94,21,16,4.37,12.5,,14.6,13.3,7.02,13.7,10.6,4.5,4.7,3.8,3.7,inhibition of growth at 10 µM [30]: 8.52%; inhibition of growth at 10 µM [34]: 5.17%; inhibition of growth at 10 µM [24]: 7.42%; inhibition of growth at 10 µM [25]: 10.8%
